# Tests used:
# BBB of THPI-244 analogs = assay: BBB of THPI-244 analogs
# Source text: (§1) The following table illustrates Chemical structures and properties of THPI-244 analogs selected out of 37 analogs, and each have significant sAPPα increasing activity. Toxicity is the minimum dose for toxicity.
# [1] = system: sAPPα release, fibroblasts derived from AD patients; assay: sAPPα ELISA, AD fibroblasts; assay type: cell-based, human; conditions: 24 h
# Procedure: (1). […] Therefore, we first used fibroblasts derived from AD patients (AG06263C, Coriell Cell repository, supported by NINDS/NIH) and exposed to THPI-244 for 24 h and measured sAPPα release by ELISA as done above for NT2 cells. […] We also confirmed dose-dependent effect of THPI-244 on sAPPα levels in human primary neurons transiently transfected with APP751 with Swedish mutation which is trafficked differently from WT APP and releases more sAPPα. Human neurons were grown on specially coated glass coverslips (cat # GG-18-PDL, NeuVitro, Germany). We could reproducibly achieve nearly 30% transfection efficiency using a nanoparticle based transfection reagent called Neuromag (cat # NM150299, OZ Biosciences, France).
# [2] = system: fibroblasts derived from AD patients; assay: MTT cytotoxicity, AD fibroblasts; assay type: cell-based, human; conditions: 24 h exposure
# Source text: (4). Toxicity is another crucial limitation for successful drug development as evidenced by recent failure of γ-secretase inhibitors at the clinical trials due to cytotoxicity (Cole, S L and Vassar, R, 2007, Mol. Neurodeg. 2, 22-47; Doody R S, et al. 2013. N. Eng. J. Med. 369, 341-350). Therefore we measured cytotoxicity by very sensitive MTT assay as described previously (Hayes, C D., et al. 2013, BMC Medicine. 26, 11.81; 23; Hayes, C D., et al., 2012, PLoS One 7, e45841) in human primary neurons obtained from a commercial source (cat #1520, ScienCell, Carlsbad, Calif., USA) and fibroblasts derived directly from A D patients (cat# AG06263C, Coriell Institute Cell repository supported by NINDS, NIH). […] We directly used human neurons for toxicity studies so as to reduce the chances of future failure at a later stage due to toxicity.
# [3] = system: Aβ42 levels, NT2 cells stably expressing APP751; assay: Aβ42 ELISA, NT2 stable cells; assay type: cell-based, human
# Procedure: (5). To confirm the effect of THPI-244 on sAPPα levels in a neuronal cell line and by a tertiary assay, we exposed human Neuron-committed Teratocarcinoma cell line (NT2) stably expressing human APP751 to different concentrations of THPI-244 for 24 h and compared with that of Bryostatin, a classical activator of PKC known to stimulate sAPPα release. […] Levels of sAPPα were measured by ELISA using commercially available kit (cat #27734, IBL-America, Minneapolis, Minn., USA). […] Similar biphasic effect of Bryostatin was confirmed for Aβ42 also, measured again in NT2 stable cells by ELISA (cat # KHB3441, Life Technologies, Grand Island, N.Y., USA). Consistent with sAPPα, THPI-244 decreased Aβ42 levels dose-dependently starting from 50 nM (28%, p<0.05) to 2000 nM (64%, p<0.001) (n=4 independent experiments) (FIG. 1.7). Thus THPI-244 increased non-amyloidogenic processing of APP in NT2 cells.
# [4] = system: PI3Kα, MAPK, PLC-γ, P75NTR pathways; assay: Signal transduction analysis, NT2 cells; assay type: cell-based, human
# Source text: (2). THPI-244 increases sAPPα by a novel mechanism of upregulating TrkA, a neurotrophic receptor. Therefore, in addition to increasing neuroprotective sAPPα and decreasing toxic Aβ, THPI-244 mediated increased TrkA protein levels are expected to provide neurotrophic support. Following the validation of the effect of THPI-244 in increasing sAPPα levels in CHO cells, NT2 cells, AD fibroblasts and human primary neurons, we were interested in identifying the molecular target of THPI-244 for unraveling the molecular mechanism by which it increases sAPPα which in turn can predict toxicity profile and whether to pursue long-term studies. Increased protein levels of both native and phosphorylated form of TrkA in NT2 cells and mouse brains by THPI-244 validated TrkA as the target.
# TrkA = TrkA increase by THPI-244 analogs; assay type: cell-based
# Source text: as §1
structure (smiles),measurement,setting,value
O=C(Cc1ccccc1)N[C@H](CNc1nc(CN2CCN(C(=O)Cc3ccccc3)CC2)cs1)c1ccccc1 [THPI-244],% BBB,BBB of THPI-244 analogs,0.1%
same,concentration from which sAPPα increase is significant,[1],50 nM
same,concentration from which cytotoxicity is significant,[2],50 µM
same,decrease of Aβ42 levels,[3]; 50 nM,28%
same,decrease of Aβ42 levels,[3]; 2000 nM,64%
same,concentration from which Aβ42 decrease is significant,[3]; ELISA,50 nM
same,MAPK or PLC-γ pathways,[4],not
same,PI3Kα pathway,[4],activation
same,% TrkA ↑,TrkA,99%

# Source: US20150315179A1, “COMPOUNDS AND METHODS OF TREATING NEUROLOGICAL DISORDERS” (Torrey Pines Institute For Molecular Studies, priority 2014, published 2015)
